Measurements reported in patent US20240124389A1, “COMPOUND OR SALT THEREOF, LIPID PARTICLES, AND PHARMACEUTICAL COMPOSITION” (FUJIFILM Corporation, priority 2021, published 2024).

Legend:
[1] = Particle size of EPO mRNA-encapsulating lipid particles; assay type: physicochemical
Procedure: (§1) The compounds described in Table 1, the neutral lipid, cholesterol (product name: Cholesterol HP; NIPPON FINE CHEMICAL CO., LTD.), and 1,2-dimyristoyl-rac-glycero-3-(methylpolyoxyethylene 2000) (hereinafter, called DMG-PEG2000) (product name: SUNBRIGHT® GM-020; NOF corporation) were dissolved in ethanol at a molar ratio in Table 1 such that the total lipid concentration became 20 mmol/L, thereby obtaining an oil phase.
(§2) As the neutral lipid, 1,2-distearoyl-sn-glycero-3-phosphocholine (product name: COATSOME® MC-8080; NOF corporation) (hereinafter, DSPC), or L-α-dioleoyl phosphatidylethanolamine (Hereinafter, DOPE) (product name: COATSOME® ME-8181; NOF corporation), or 1,2-dioleoyl-sn-glycero-3-phosphocholine (hereinafter, DOPC) (product name: COATSOME® MC-8181; NOF corporation) was used.
(§3) EPO mRNA (product name: CleanCap EPO mRNA (5moU); TriLink) was diluted with 50 mmol/L citrate buffer having a pH 4 such that the weight ratio of total lipid concentration to mRNA concentration is about 16:1 to 64:1, thereby obtaining a water phase. Then, the water phase and the oil phase were mixed together using NanoAssemblr (Precision NanoSystems) such that the volume ratio of water phase:oil phase was 3:1, and the mixed solution was 1.5-fold diluted with phosphate buffered saline (PBS), thereby obtaining a dispersion liquid of mRNA lipid particles. The dispersion liquid was dialyzed with a 10% aqueous sucrose solution using a dialysis cassette (Slide-A-Lyzer G2, MWCO: 10 kD, Thermo Fisher Scientific) to remove ethanol, thereby obtaining EPO mRNA-encapsulating lipid particles.
The particle size of the mRNA-encapsulating lipid particles was measured by 10-fold diluting the dispersion liquid of lipid particle with phosphate buffered saline (PBS) using Zeta-potential & Particle size Analyzer ELS-Z2 (Otsuka Electronics Co., Ltd.).

EPO mRNA = test: mRNA encapsulation rate of EPO mRNA-encapsulating lipid particles; assay type: physicochemical
Procedure: as §1, §2, §3
15 to 30 μL of a 3 mol/L aqueous sodium acetate solution and 4.5 to 9 μL of glycogen were added to 30 to 60 μL of the lipid particles retaining mRNA, and 0.75 to 1.5 mL of ethanol was added thereto, so that only the nucleic acids were precipitated while the lipid was dissolved. Then, the supernatant was removed by centrifugation. The precipitates were air-dried for 15 minutes or longer, then water was added thereto to redissolve the precipitates, and the concentration thereof was measured using Nanodrop NF1000 (Thermo Fisher Scientific), thereby quantifying the total mRNA concentration.
The mRNA concentration was quantified using a Quant-iT RiboGreen RNA Assay Kit (Thermo Fisher Scientific) according to the protocol. First, a 20×TE buffer included in the above-described kit was diluted with water, thereby obtaining a 1×TE buffer. TE represents Tris/EDTA (ethylenediaminetetraacetic acid). In order to quantify only mRNA in the outer water phase, the dispersion liquid of lipid particles retaining mRNA was 10,000-fold diluted with the 1×TE buffer. 100 μL of the 10,000-fold diluted dispersion liquid of lipid particles was put into a 96-well plate, then 100 μL of a RiboGreen reagent (reagent included in the Quanti-iT Ribogreen RNA Assay Kit described above) 2,000-fold diluted with the 1×TE buffer was added to a sample, and fluorescence (excitation wavelength: 485 nm, fluorescence wavelength: 535 nm) was measured using a plate reader Infinite F200 (TECAN), thereby quantifying the mRNA concentration in the outer water phase.
By using the quantification results of the total mRNA concentration and the mRNA concentration in the outer water phase that were obtained through the above steps, the mRNA encapsulation rate of the mRNA lipid particles was calculated according to the following Equation.
mRNA encapsulation rate (%)=(total mRNA concentration-mRNA concentration in outer water phase)/total mRNA concentration×100

human EPO = test: Measurement of EPO enzyme activity (EPO protein in blood plasma of mice after intravenous administration of EPO mRNA lipid particles); assay type: in vivo; details: C57BL/6J mice, tail-vein i.v., mRNA 0.1 mg/kg, plasma 20 to 24 hours
Procedure: as §1, §2, §3
The dispersion liquid of mRNA lipid particles prepared in above-described <Preparation of EPO mRNA-encapsulating lipid particles> was tail-vein intravenously administered to C57BL/6J mice at a mRNA dosage of 0.1 mg/kg. 20 to 24 hours after the administration, blood was collected from the caudal vena cava, thereby obtaining blood plasma. The human EPO enzyme activity was quantified by using the obtained blood plasma and ab119522 Erythropoietin (EPO) Human Elisa Kit (Abcam.plc). The quantitative value is described as a relative amount of EPO protein in a case where Comparative Example 1 is 1.

[2] = aminolipid 50 / DSPC 10 / cholesterol 38.5 / DMG-PEG2000 1.5 mol %, lipid/nucleic acid 20 wt/wt
[3] = aminolipid 50 / DOPE 10 / cholesterol 38.5 / DMG-PEG2000 1.5 mol %, lipid/nucleic acid 64 wt/wt

Row | SMILES | Particle size [1, 2] [nm] | Nucleic acid encapsulation rate (EPO mRNA; [2]) [%] | Relative amount of EPO protein (with respect to Comparative Example 1) (human EPO; [2]) | Particle size [1, 3] [nm] | Nucleic acid encapsulation rate (EPO mRNA; [3]) [%] | Relative amount of EPO protein (with respect to Comparative Example 1) (human EPO; [3])
1 | CCCCC/C=C\C/C=C\CCCCCCCCC(CCCCCCCC/C=C\C/C=C\CCCCC)OC(=O)CCCN(C)C [Comparative Example 1, reference compound] | 89.0 | 93.4 | 1 | – | – | –
2 | CCCCCCCC/C=C\CCCCCCCC(=O)OCCN(CCOC(=O)OC(CCCCCC)CCCCCCCCC(=O)OCC(CCCCCC)CCCCCCCC)CCN(CC)CC (stereo not drawn) [Comparative Example 2, reference compound] | – | – | – | 88.8 | 100 | 0.74
3 | CCCCCCC(CCCC)COC(=O)CCCCCCCCC(CCCCCC)OC(=O)OCCN(CCCN(CC)CC)CCOC(=O)OC(CCCCCC)CCCCCCCCC(=O)OCC(CCCC)CCCCCC (stereo not drawn) [Example 3, Bis(2-butyloctyl) 16-(3-(diethylamino)propyl)-10,22-dihexyl-12,20-dioxo-11,13,19,21-tetraoxa-16-azahentriaco ntanedioate] | – | – | – | 81.2 | 97.8 | 1.92
4 | CCCCCCC(CCCC(=O)OCC(CCCCC)CCCCC)OC(=O)OCCN(CCOC(=O)OC(CCCCCC)CCCC(=O)OCC(CCCCC)CCCCC)CCN(CC)CC (stereo not drawn) [Example 10, bis(2-pentylheptyl) 11-(2-(diethylamino)ethyl)-5,17-dihexyl-7,15-dioxo-6,8,14,16-tetraoxa-11-azahenicosanedioate] | – | – | – | 88.0 | 100.0 | 2.39
5 | CCCCCCC(CCCC(=O)OCC(CCCCC)CCCCC)OC(=O)OCCN(CCOC(=O)OC(CCCCCC)CCCC(=O)OCC(CCCCC)CCCCC)CCN(C)C (stereo not drawn) [Example 11, Bis(2-pentylheptyl) 11-(2-(dimethylamino)ethyl)-5,17-dihexyl-7,15-dioxo-6,8,14,16-tetraoxa-11-azahenicosanedio ate] | – | – | – | 73.2 | 98.6 | 2.70
6 | CCCCCCC(CCCC(=O)OCC(CCCCC)CCCCC)OC(=O)OCCN(CCCCN(CC)CC)CCOC(=O)OC(CCCCCC)CCCC(=O)OCC(CCCCC)CCCCC (stereo not drawn) [Example 14, Bis(2-pentylheptyl) 11-(4-(diethylamino)butyl)-5,17-dihexyl-7,15-dioxo-6,8,14,16-tetraoxa-11-azahenicosanedioate] | – | – | – | 75.9 | 98.8 | 3.85
7 | CCCCCCC(CCCC(=O)OCC(CCCCC)CCCCC)OC(=O)OCCCN(CCCOC(=O)OC(CCCCCC)CCCC(=O)OCC(CCCCC)CCCCC)CCN(CC)CC (stereo not drawn) [Example 15, Bis(2-pentylheptyl) 12-(2-(diethylamino)ethyl)-5,19-dihexyl-7,17-dioxo-6,8,16,18-tetraoxa-12-azatricosanedioate] | – | – | – | 76.8 | 97.5 | 1.92
8 | CCCCCCC(CCCC(=O)OCC(CCCCC)CCCCC)OC(=O)OCCCCN(CCCCOC(=O)OC(CCCCCC)CCCC(=O)OCC(CCCCC)CCCCC)CCN(CC)CC (stereo not drawn) [Example 16, Bis(2-pentylheptyl) 13-(2-(diethylamino)ethyl)-5,21-dihexyl-7,19-dioxo-6,8,18,20-tetraoxa-13-azapentacosanedio ate] | – | – | – | 69.4 | 97.3 | 2.53
9 | CCCCCCC(CCC(=O)OCC(CCCCC)CCCCC)OC(=O)OCCN(CCOC(=O)OC(CCCCCC)CCC(=O)OCC(CCCCC)CCCCC)CCN(CC)CC (stereo not drawn) [Example 17, Bis(2-pentylheptyl) 10-(2-(diethylamino)ethyl)-4,16-dihexyl-6,14-dioxo-5,7,13,15-tetraoxa-10-azanonadecanedioate] | – | – | – | 81.7 | 96.9 | 2.93
